Reference: US20230232831A1, “MONOTERPENOID AND PHENYLPROPANOID CARBONATE ESTERS AND METHODS OF THEIR MAKING AND USE AS REPELLENTS” (IOWA STATE UNIVERSITY RESEARCH FOUNDATION, INC., priority 2020, published 2023)
“Also recorded” adds a separate entry of the source.

How the values were obtained:
Assay type in all cases: in vivo
Culex pipiens [1] = assay: Long-term repellency, treated filter paper placed in chamber 5 hours after application; details: filter paper placed 5 hours after compound was applied
Procedure: FIG. 5 is a graph showing the repellency observed when 1 mL of each compound was applied to a filter paper placed at the treated end of the repellency chamber 5 hours after compound was applied. FIG. 8 is a graph showing the repellency of various compounds observed when 1 mL of each compound was applied to a filter paper placed at the treated end of the repellency chamber 5 hours after compound was applied. An array of older and newly synthesized carbonates was chosen and tested for repellency activity. Six compounds were screened according to long-term repellency assays and three compounds were screened according to short-term repellency assays. These assays were all conducted using Culex pipiens mosquitoes. The compounds tested are illustrated in Table 1. An array of carbonates was chosen and tested for repellency activity. Some compounds were screened according to long-term repellency assays and some compounds were screened according to short-term repellency assays. These assays were conducted using Culex pipiens mosquitoes or Aedes aegypti mosquitoes.

Culex pipiens [2] = assay: Short-term spatial repellency, static air chamber; details: for short-term repellency (result in words): 1 mL of 0.5% solution on filter paper, 15-150 min
Procedure: FIG. 4 is a graph showing the repellency observed when 1 mL of a 0.5% solution of each compound was applied to a filter paper, dried for 15 minutes, and placed at the treated end of the repellency chamber. FIG. 6 is a graph showing repellency of various compounds against the mosquito species Culex pipiens observed when 1 mL of a 0.5% solution of each compound was applied to a filter paper, dried for 15 minutes, and placed at the treated end of the repellency chamber. The static air chamber used for the repellency assay has been described previously (Klimavicz et al., “Monoterpenoid Isovalerate Esters as Long-lasting Spatial Mosquito Repellents,” In Advances in the Biorational Control of Medicaland Veterinary Pests, American Chemical Society: 2018; Vol. 1289, pp 205-217; Peterson et al., “Identification of Components of Osage Orange Fruit (Maclura pomifera) and Their Repellency to German Cockroaches,” J. Essent. Oil Res. 14:233-236 (2002), which are hereby incorporated by reference in their entirety). For each assay run, a 90-mm Whatman No. 1 filter paper was treated with 1 mL acetone solution containing 0.5% w/v of a carbonate ester. The filter paper was supported upon several pins during the addition of the acetone solution to diminish wicking of the solution away from the filter paper, and the solution was added over approximately thirty seconds to allow acetone to evaporate during the addition to prevent dripping. After the addition of the solution was complete, remaining acetone was permitted to evaporate for […] before testing. A 600-mm-long clear glass cylinder with an inner diameter of 85 mm and a single hole (20 mm diameter) halfway along the side of the cylinder was used for the repellency chamber. One end of the chamber was capped with a glass petri dish (inner diameter 90 mm) containing an untreated 90-mm Whatman No. 1 filter paper, while the other end was likewise covered with a similar petri dish containing the treated filter paper. Immediately after capping both ends of the chamber, 20 non-blood-fed female Culex pipiens mosquitoes were anesthetized with carbon dioxide, and placed into the repellency chamber through the hole in the side of the cylinder via a funnel. The hole was sealed, and the number of mosquitoes on the treated and untreated halves were recorded at 15, 30, 60, 90, 120, and 150 minutes after introduction of the mosquitoes to the chamber. All statistical analysis was performed in R. To determine repellency of a given compound, the number of repelled mosquitoes and the total number of mosquitos the chamber for each trial at a given time point were fit to a beta-binomial distribution to account for overdispersion in the estimated repellency. Because percentage repellency is bound between -100% (completely attracting) and 100% (completely repelling), percentage repellency shown with error bars representing 50% confidence intervals determined from a non-chance-corrected beta-binomial fit to the data, using an inverse link function equal to the psychometric function for the duo-trio test. Statistical significance was determined by nonoverlap of these confidence intervals. Estimates of the proportion of mosquitoes repelled in the chamber was then transformed to percentage repellency, which is expressed as […]

Culex pipiens [3] = assay: Short-term spatial repellency, static air chamber; details: short-term assay, 1 mL of 0.5% solution, dried 15 minutes

C=C(C)C1CCC(C)CC1OC(=O)OCC (stereo not shown) [Compound 3a, Ethyl isopulegyl carbonate]
long-term repellency (result in words) (Culex pipiens [1]): not able to repel mosquitoes very well at all

CCOC(=O)OCCC(C)CCC=C(C)C (stereo not shown) [Compound 1a, Citronellyl ethyl carbonate]
short-term repellency (result in words) (Culex pipiens [2]): numerically superior out of all the citronellyl carbonates | mosquitoes repelled in short-term repellency assay (Culex pipiens [2]; 1 mL of 0.5% w/v acetone solution on filter paper, assay extending out to 2.5 hours): approximately 90%

CCOC(=O)OC1CC2CCC1(C)C2(C)C (stereo not shown) [Compound 7a, Bornyl ethyl carbonate]
short-term repellency (result in words) (Culex pipiens [2]): only modest repellency

CC(C)=CCCC(C)CCOC(=O)Oc1ccccc1 (stereo not shown) [Compound 1f, Citronellyl phenyl carbonate]
short-term repellency (result in words) (Culex pipiens [2]): weakest repellent effect

Cc1ccc(C(C)C)c(OC(=O)OCC(C)C)c1 [Compound 2d, Isobutyl thymyl carbonate]
short-term repellency (result in words) (Culex pipiens [2]): slower onset of high repellency; also recorded: final estimated repellency was approximately the same

CCOC(=O)Oc1cc(C)ccc1C(C)C [Compound 2a, Ethyl thymyl carbonate]
short-term repellency (result in words) (Culex pipiens [2]): final estimated repellency was approximately the same | short-term repellency (result in words) (Culex pipiens [2]; listed as Ethyl thymyl carbonate): excellent short-term repellent

CCOC(=O)OC1C=C(C)C2CC1C2(C)C (stereo not shown) [Compound 4251, Verbenyl ethyl carbonate]
mortality seen in the repellency chamber (Culex pipiens [3]): Very minimal amounts of mortality

CC(C)=CCCC(C)CCOC(=O)OC(C)C (stereo not shown) [Compound 1c, Citronellyl isopropyl carbonate]
short-term repellency (result in words) (Culex pipiens [2]): numerically, but not statistically, less repellent than 1a

CC(C)=CCCC(C)CCOC(=O)OCC(C)C (stereo not shown) [Compound 1d, Citronellyl isobutyl carbonate]
short-term repellency (result in words) (Culex pipiens [2]): numerically, but not statistically, less repellent than 1a

COC(=O)OCCC(C)CCC=C(C)C (stereo not shown) [Compound 1b, Citronellyl methyl carbonate]
short-term repellency (result in words) (Culex pipiens [2]): numerically, but not statistically, less repellent than 1a

COC(=O)Oc1cc(C)ccc1C(C)C [Compound 4249, Thymyl methyl carbonate]
mortality seen in the repellency chamber (Culex pipiens [3]): significant mortality
